System: MV-4-11 cells
Assay: Gene expression microarray analysis (Affymetrix PrimeView) and GSEA
Format: cell-based, human
Design: RFU PODN (11730768_x_at) / Fold change /veh PODN (11730768_x_at) / RFU LINC00158 (11744669_a_at) / Fold change /veh LINC00158 (11744669_a_at) / RFU DUSP10 (11751237_a_at) / Fold change /veh DUSP10 (11751237_a_at) / RFU ID3 (11757404_x_at) / Fold change /veh ID3 (11757404_x_at) / RFU PLEKHG5 (11737974_s_at) / Fold change /veh PLEKHG5 (11737974_s_at) / RFU LRRC4B (11730491_at) / Fold change /veh LRRC4B (11730491_at) / RFU GIMAP4 (11747438_a_at) / Fold change /veh GIMAP4 (11747438_a_at) / RFU KRT8 (11758183_x_at) / Fold change /veh KRT8 (11758183_x_at) / RFU CNN1 (11734310_a_at) / Fold change /veh CNN1 (11734310_a_at) / RFU VPS37D (11726825_at) / Fold change /veh VPS37D (11726825_at) / RFU C10orf10 (11716522_x_at) / Fold change /veh C10orf10 (11716522_x_at) / RFU KIR2DL2 /// KIR2DL4 /// KIR2DL5A /// KIR2DL5B /// KIR2DS1 /// KIR2DS2 /// KIR2DS3 /// KIR2DS4 /// KIR3DL3 /// KIR3DL3 /// KIR3DS1 (11738374_at) / Fold change /veh KIR2DL2 /// KIR2DL4 /// KIR2DL5A /// KIR2DL5B /// KIR2DS1 /// KIR2DS2 /// KIR2DS3 /// KIR2DS4 /// KIR3DL3 /// KIR3DL3 /// KIR3DS1 (11738374_at) / RFU C1QL1 (11718748_at) / Fold change /veh C1QL1 (11718748_at) / RFU TMPRSS4 (11747572_a_at) / Fold change /veh TMPRSS4 (11747572_a_at) / RFU HAMP (11756126_x_at) / Fold change /veh HAMP (11756126_x_at) / RFU RNFT2 (11725882_a_at) / Fold change /veh RNFT2 (11725882_a_at) / RFU NR4A2 (11747474_a_at) / Fold change /veh NR4A2 (11747474_a_at) / RFU ABCC12 (11746883_a_at) / Fold change /veh ABCC12 (11746883_a_at) / RFU TMEM136 (11760407_x_at) / Fold change /veh TMEM136 (11760407_x_at) / RFU CLDN22 /// WWC2 (11732394_at) / Fold change /veh CLDN22 /// WWC2 (11732394_at) / RFU HLA-DPB1 (11760878_x_at) / Fold change /veh HLA-DPB1 (11760878_x_at) / RFU SPINT1 (11716480_a_at) / Fold change /veh SPINT1 (11716480_a_at) / RFU GAP43 (11754022_s_at) / Fold change /veh GAP43 (11754022_s_at) / RFU A4GNT (11735810_at) / Fold change /veh A4GNT (11735810_at) / RFU PRB3 (11715151_x_at) / Fold change /veh PRB3 (11715151_x_at) / RFU TUBB4B (11761932_at) / Fold change /veh TUBB4B (11761932_at) / RFU CAPN14 (11732068_a_at) / Fold change /veh CAPN14 (11732068_a_at) / RFU TMCC2 (11721928_a_at) / Fold change /veh TMCC2 (11721928_a_at) / RFU IRGQ (11745062_a_at) / Fold change /veh IRGQ (11745062_a_at) / RFU FAM174B (11720279_a_at) / Fold change /veh FAM174B (11720279_a_at) / RFU TMPRSS4 (11748680_a_at) / Fold change /veh TMPRSS4 (11748680_a_at) / RFU FAM212B (11763350_a_at) / Fold change /veh FAM212B (11763350_a_at) / RFU PLEKHG5 (11743358_a_at) / Fold change /veh PLEKHG5 (11743358_a_at) / RFU ZSCAN30 (11745921_a_at) / Fold change /veh ZSCAN30 (11745921_a_at) / RFU CMKLR1 (11741424_a_at) / Fold change /veh CMKLR1 (11741424_a_at) / RFU LOC101060620 /// MAPK8IP1 (11723275_at) / Fold change /veh LOC101060620 /// MAPK8IP1 (11723275_at) / RFU SPTSSB (11747773_x_at) / Fold change /veh SPTSSB (11747773_x_at) / RFU PRSS12 (11739890_at) / Fold change /veh PRSS12 (11739890_at) / RFU BIN1 (11741810_x_at) / Fold change /veh BIN1 (11741810_x_at) / RFU WNT11 (11732464_a_at) / Fold change /veh WNT11 (11732464_a_at) / RFU C10orf10 (11716521_a_at) / Fold change /veh C10orf10 (11716521_a_at) / RFU C5orf56 (11738089_at) / Fold change /veh C5orf56 (11738089_at) / RFU CYB561 (11721691_x_at) / Fold change /veh CYB561 (11721691_x_at) / RFU ANKRD19P (11752326_a_at) / Fold change /veh ANKRD19P (11752326_a_at) / RFU OR2T12 /// OR2T33 /// OR2T8 (11738714_s_at) / Fold change /veh OR2T12 /// OR2T33 /// OR2T8 (11738714_s_at) / RFU VCAN (11748164_a_at) / Fold change /veh VCAN (11748164_a_at) / RFU JSRP1 (11732532_at) / Fold change /veh JSRP1 (11732532_at) / RFU KRTAP10-11 (11738290_x_at) / Fold change /veh KRTAP10-11 (11738290_x_at) / RFU MYO3A (11730013_a_at) / Fold change /veh MYO3A (11730013_a_at) / RFU EBF3 (11725865_a_at) / Fold change /veh EBF3 (11725865_a_at) / RFU CAMK2N1 (11719241_x_at) / Fold change /veh CAMK2N1 (11719241_x_at) / RFU C5orf56 (11738088_a_at) / Fold change /veh C5orf56 (11738088_a_at) / RFU OLFML3 (11715873_a_at) / Fold change /veh OLFML3 (11715873_a_at) / RFU LOC100653217 /// NTM (11731650_a_at) / Fold change /veh LOC100653217 /// NTM (11731650_a_at) / RFU MAPK11 (11762145_a_at) / Fold change /veh MAPK11 (11762145_a_at) / RFU FIZ1 (11724087_x_at) / Fold change /veh FIZ1 (11724087_x_at) / RFU OASL (11726364_x_at) / Fold change /veh OASL (11726364_x_at) / RFU SOX15 (11748057_x_at) / Fold change /veh SOX15 (11748057_x_at) / RFU CD79A (11719716_a_at) / Fold change /veh CD79A (11719716_a_at) / RFU HIST1H1D (11736915_at) / Fold change /veh HIST1H1D (11736915_at) / RFU CASKIN2 (11723855_a_at) / Fold change /veh CASKIN2 (11723855_a_at) / RFU LOC730098 (11760151_x_at) / Fold change /veh LOC730098 (11760151_x_at) / RFU OR4N2 (11742367_at) / Fold change /veh OR4N2 (11742367_at) / RFU PRRT2 (11749266_a_at) / Fold change /veh PRRT2 (11749266_a_at) / RFU SNX32 (11753110_a_at) / Fold change /veh SNX32 (11753110_a_at) / RFU CDHR5 (11726645_a_at) / Fold change /veh CDHR5 (11726645_a_at) / RFU RCAN1 (11760418_a_at) / Fold change /veh RCAN1 (11760418_a_at) / RFU FAM167A (11723789_a_at) / Fold change /veh FAM167A (11723789_a_at) / RFU FAM26E (11764081_at) / Fold change /veh FAM26E (11764081_at) / RFU ISYNA1 (11749810_s_at) / Fold change /veh ISYNA1 (11749810_s_at) / RFU ACY1 (11761880_at) / Fold change /veh ACY1 (11761880_at) / RFU 11764098_at / Fold change /veh 11764098_at / RFU SAMD14 (11745864_x_at) / Fold change /veh SAMD14 (11745864_x_at) / RFU NPB (11741838_a_at) / Fold change /veh NPB (11741838_a_at) / RFU TMPRSS6 (11731388_a_at) / Fold change /veh TMPRSS6 (11731388_a_at) / RFU KRTAP10-2 (11738614_at) / Fold change /veh KRTAP10-2 (11738614_at) / RFU ARHGAP8 /// PRR5-ARHGAP8 (11727945_x_at) / Fold change /veh ARHGAP8 /// PRR5-ARHGAP8 (11727945_x_at) / RFU KRTAP5-7 /// NADSYN1 (11734609_at) / Fold change /veh KRTAP5-7 /// NADSYN1 (11734609_at) / RFU RASL12 (11751679_a_at) / Fold change /veh RASL12 (11751679_a_at) / RFU CDKN2B (11736163_a_at) / Fold change /veh CDKN2B (11736163_a_at) / RFU PRF1 (11729649_at) / Fold change /veh PRF1 (11729649_at) / RFU, ZNF638 /// ZNF638-IT1 / Fold change vs veh, ZNF638 /// ZNF638-IT1 / RFU, PANK3 / Fold change vs veh, PANK3 / RFU, SH3YL1 / Fold change vs veh, SH3YL1 / RFU, ZEB2 / Fold change vs veh, ZEB2 / RFU, NRIP1 / Fold change vs veh, NRIP1 / RFU, PTTG1IP / Fold change vs veh, PTTG1IP / RFU, CAPN2 / Fold change vs veh, CAPN2 / RFU, MED14 / Fold change vs veh, MED14 / RFU, SNORA58 / Fold change vs veh, SNORA58 / RFU, C1orf63 / Fold change vs veh, C1orf63 / RFU, LRRFIP1 / Fold change vs veh, LRRFIP1 / RFU, NDUFAF7 / Fold change vs veh, NDUFAF7 / RFU, SLC12A2 / Fold change vs veh, SLC12A2 / RFU, IBTK / Fold change vs veh, IBTK / RFU, ESF1 / Fold change vs veh, ESF1 / Fold change vs veh, TMEM50B / RFU, TAOK1 / Fold change vs veh, TAOK1 / RFU, ACBD3 / Fold change vs veh, ACBD3 / RFU, TMA16 / Fold change vs veh, TMA16 / RFU, RWDD3 / Fold change vs veh, RWDD3 / RFU, BCAT1 / Fold change vs veh, BCAT1 / RFU, EDEM3 / Fold change vs veh, EDEM3 / RFU, TMEM33 / Fold change vs veh, TMEM33 / RFU, WDR75 / Fold change vs veh, WDR75 / RFU, AHCTF1 / Fold change vs veh, AHCTF1 / RFU, TFRC / Fold change vs veh, TFRC / RFU, ZDHHC17 / Fold change vs veh, ZDHHC17 / RFU, NOM1 / Fold change vs veh, NOM1 / RFU, ARL8B / Fold change vs veh, ARL8B / RFU, ZBTB11 / Fold change vs veh, ZBTB11 / RFU, TAMM41 / Fold change vs veh, TAMM41 / RFU, KIAA1704 /// LOC100996395 / Fold change vs veh, KIAA1704 /// LOC100996395 / RFU, ING1 / Fold change vs veh, ING1 / RFU, TRMT61B / Fold change vs veh, TRMT61B / RFU, FUBP3 / Fold change vs veh, FUBP3 / RFU, TP53 / Fold change vs veh, TP53 / RFU, TNKS2 / Fold change vs veh, TNKS2 / RFU, ZFP14 / Fold change vs veh, ZFP14 / RFU, ACTR2 / Fold change vs veh, ACTR2 / RFU, PPP3R1 / Fold change vs veh, PPP3R1 / RFU, PIK3R1 / Fold change vs veh, PIK3R1 / RFU, HNRNPA1 / Fold change vs veh, HNRNPA1 / RFU, RNF170 / Fold change vs veh, RNF170 / RFU, ZNF28 / Fold change vs veh, ZNF28 / RFU, RNGTT / Fold change vs veh, RNGTT / RFU, OGT / Fold change vs veh, OGT / RFU, BRD1 / Fold change vs veh, BRD1 / RFU, MARS / Fold change vs veh, MARS / RFU, ZNF655 / Fold change vs veh, ZNF655 / RFU, FAHD1 / Fold change vs veh, FAHD1 / RFU, BDP1 / Fold change vs veh, BDP1 / RFU, LRRCC1 / Fold change vs veh, LRRCC1 / RFU, ARID1A / Fold change vs veh, ARID1A / RFU, ZNF146 / Fold change vs veh, ZNF146 / RFU, ZNF330 / Fold change vs veh, ZNF330 / RFU, GPN3 / Fold change vs veh, GPN3 / RFU, C9orf123 / Fold change vs veh, C9orf123 / RFU, N4BP2L2 / Fold change vs veh, N4BP2L2 / RFU, ARFIP1 / Fold change vs veh, ARFIP1 / RFU, FAM179B / Fold change vs veh, FAM179B / RFU, BCL10 / Fold change vs veh, BCL10 / RFU, UHRF1BP1L / Fold change vs veh, UHRF1BP1L / RFU, BET1 / Fold change vs veh, BET1 / RFU, CNOT2 / Fold change vs veh, CNOT2 / RFU, ZNF268 / Fold change vs veh, ZNF268 / Fold change vs veh, ZNF507 / RFU, DGCR2 / Fold change vs veh, DGCR2 / RFU, WDSUB1 / Fold change vs veh, WDSUB1 / Fold change vs veh, HSP90B1 /// MIR3652 / RFU, ADSS / Fold change vs veh, ADSS / RFU, GK / Fold change vs veh, GK / RFU, ZNF148 / Fold change vs veh, ZNF148 / RFU, TAF9 / Fold change vs veh, TAF9 / RFU, SLC1A5 / Fold change vs veh, SLC1A5 / RFU, SLMO2 / Fold change vs veh, SLMO2 / RFU, ABCC4 / Fold change vs veh, ABCC4 / RFU, LOC101060439 /// RAP1B / Fold change vs veh, LOC101060439 /// RAP1B / RFU, RFX7 / Fold change vs veh, RFX7 / RFU, GTPBP10 / Fold change vs veh, GTPBP10 / RFU, CNEP1R1 / Fold change vs veh, CNEP1R1 / RFU, BIVM-ERCC5 /// ERCC5 / Fold change vs veh, BIVM-ERCC5 /// ERCC5 / RFU, ILF3 / Fold change vs veh, ILF3 / RFU 11762660_at / Fold change /veh 11762660_at / RFU VCAN (11757783_s_at) / Fold change /veh VCAN (11757783_s_at) / RFU DDX43 (11728927_at) / Fold change /veh DDX43 (11728927_at) / RFU KRT8 (11758188_x_at) / Fold change /veh KRT8 (11758188_x_at) / RFU NKD1 (11759106_at) / Fold change /veh NKD1 (11759106_at) / RFU SRD5A1 (11742802_a_at) / Fold change /veh SRD5A1 (11742802_a_at) / RFU TPSAB1 /// TPSB2 (11721975_s_at) / Fold change /veh TPSAB1 /// TPSB2 (11721975_s_at) / RFU GSTM3 (11746129_a_at) / Fold change /veh GSTM3 (11746129_a_at) / RFU IL23R (11737362_x_at) / Fold change /veh IL23R (11737362_x_at) / RFU TMEM51 (11727254_a_at) / Fold change /veh TMEM51 (11727254_a_at) / RFU PIWIL2 (11732686_x_at) / Fold change /veh PIWIL2 (11732686_x_at) / RFU ORM1 (11744905_x_at) / Fold change /veh ORM1 (11744905_x_at) / RFU CCDC152 (11743942_at) / Fold change /veh CCDC152 (11743942_at) / RFU ECM1 (11717891_a_at) / Fold change /veh ECM1 (11717891_a_at) / RFU IL23R (11748794_a_at) / Fold change /veh IL23R (11748794_a_at) / RFU TNFAIP8L3 (11732012_x_at) / Fold change /veh TNFAIP8L3 (11732012_x_at) / RFU MBOAT4 (11741988_at) / Fold change /veh MBOAT4 (11741988_at) / RFU 11764193_at / Fold change /veh 11764193_at / RFU TMEM53 (11763286_at) / Fold change /veh TMEM53 (11763286_at) / RFU MAGEB2 (11727129_at) / Fold change /veh MAGEB2 (11727129_at) / RFU TMEM200A (11744735_a_at) / Fold change /veh TMEM200A (11744735_a_at) / RFU CCDC152 (11751479_a_at) / Fold change /veh CCDC152 (11751479_a_at) / RFU FAM211A (11726209_a_at) / Fold change /veh FAM211A (11726209_a_at) / RFU RGS16 (11746705_a_at) / Fold change /veh RGS16 (11746705_a_at) / RFU VCAN (11755009_s_at) / Fold change /veh VCAN (11755009_s_at) / RFU RHOB (11743442_s_at) / Fold change /veh RHOB (11743442_s_at) / RFU RGS16 (11720943_a_at) / Fold change /veh RGS16 (11720943_a_at) / RFU RGS16 (11720944_at) / Fold change /veh RGS16 (11720944_at) / RFU, VPS4B / Fold change vs veh, VPS4B / RFU, CREB1 / Fold change vs veh, CREB1 / RFU, DNAJC13 / Fold change vs veh, DNAJC13 / RFU, GNAQ / Fold change vs veh, GNAQ / RFU, CDK5R1 / Fold change vs veh, CDK5R1 / RFU, ZRANB3 / Fold change vs veh, ZRANB3 / RFU, CUL4A / Fold change vs veh, CUL4A / RFU, CCNY / Fold change vs veh, CCNY / RFU, UFL1 / Fold change vs veh, UFL1 / RFU, COG3 / Fold change vs veh, COG3 / RFU, DIAPH2 / Fold change vs veh, DIAPH2 / RFU, SKA2 / Fold change vs veh, SKA2 / RFU, AFF3 / Fold change vs veh, AFF3 / RFU, LMF1 / Fold change vs veh, LMF1 / RFU, IPO11 / Fold change vs veh, IPO11 / RFU, DFFB / Fold change vs veh, DFFB / RFU, FOXP1 / Fold change vs veh, FOXP1 / RFU, CARD8 / Fold change vs veh, CARD8 / RFU, STRN3 / Fold change vs veh, STRN3 / RFU, ADK / Fold change vs veh, ADK / RFU, RASSF2 / Fold change vs veh, RASSF2 / RFU, WIPF1 / Fold change vs veh, WIPF1 / RFU, LARP1B / Fold change vs veh, LARP1B / RFU, RASA1 / Fold change vs veh, RASA1 / RFU, RB1 / Fold change vs veh, RB1 / RFU, PPFIA1 / Fold change vs veh, PPFIA1 / RFU, MAT2A / Fold change vs veh, MAT2A / RFU, CCT5 / Fold change vs veh, CCT5 / RFU, WDR92 / Fold change vs veh, WDR92 / RFU, CUX1 / Fold change vs veh, CUX1 / RFU, TTC7A / Fold change vs veh, TTC7A / RFU, TMEM135 / Fold change vs veh, TMEM135 / RFU, DEPTOR / Fold change vs veh, DEPTOR / RFU, CPM / Fold change vs veh, CPM / RFU, DNAJB6 / Fold change vs veh, DNAJB6 / RFU, CACNA2D3 / Fold change vs veh, CACNA2D3 / RFU, DTX4 / Fold change vs veh, DTX4 / RFU, TFCP2 / Fold change vs veh, TFCP2 / RFU, GMCL1 /// GMCL1P1 / Fold change vs veh, GMCL1 /// GMCL1P1 / RFU, AEBP2 / Fold change vs veh, AEBP2 / RFU, SNHG1 /// SNORD22 /// SNORD25 /// SNORD26 /// SNORD27 /// SNORD28 /// SNORD29 /// SNORD31 / Fold change vs veh, SNHG1 /// SNORD22 /// SNORD25 /// SNORD26 /// SNORD27 /// SNORD28 /// SNORD29 /// SNORD31 / Fold change (Aza/veh), C12orf56 (ProbeSet 11735607_a_at) / Fold change (ACY-1035/veh), C12orf56 (ProbeSet 11735607_a_at) / Fold change (Aza/veh), FGFR1OP (ProbeSet 11751329_s_at) / Fold change (ACY-1035/veh), FGFR1OP (ProbeSet 11751329_s_at) / Fold change (Aza/veh), VPS36 (ProbeSet 11739960_a_at) / Fold change (ACY-1035/veh), VPS36 (ProbeSet 11739960_a_at) / RFU SYPL1 (11715823_x_at) / Fold change /veh SYPL1 (11715823_x_at) / RFU IGFBP7 (11715501_s_at) / Fold change /veh IGFBP7 (11715501_s_at) / RFU REEP3 (11722064_at) / Fold change /veh REEP3 (11722064_at) / RFU IGLL1 (11728026_x_at) / Fold change /veh IGLL1 (11728026_x_at): dose or concentration left out as unconfirmed
Settings: MV-4-11 cells, 48 hours

With `Nc1ccc(-c2cccs2)cc1NC(=O)c1ccc2c(c1)cc(C1CC1)n2CCN1CCOCC1` [ACY-1035] as the compound, how does the “RFU PRB3 (11715151_x_at)” value read?
The value was 8.09 RFU.
